Structures can show the parent of a compound that is named as a salt.
Target: human SERT (Homo sapiens, UniProt P31645)
Assay: Inhibitory activity assay against 5-HT transporter (neurotransmitter transporter uptake assay kit)
Assay type: cell-based
Settings: HEK-293 cells overexpressing human SERT; read-out: 5-HTT (IC50)
Experimental: In HEK-293 cells overexpressing human SERT, the transporter inhibitory effect of the test compound on human SERT was assayed using a Neurotransmitter transporter uptake assay kit (Molecular devices).

Chain of human SERT (P31645 whole entry): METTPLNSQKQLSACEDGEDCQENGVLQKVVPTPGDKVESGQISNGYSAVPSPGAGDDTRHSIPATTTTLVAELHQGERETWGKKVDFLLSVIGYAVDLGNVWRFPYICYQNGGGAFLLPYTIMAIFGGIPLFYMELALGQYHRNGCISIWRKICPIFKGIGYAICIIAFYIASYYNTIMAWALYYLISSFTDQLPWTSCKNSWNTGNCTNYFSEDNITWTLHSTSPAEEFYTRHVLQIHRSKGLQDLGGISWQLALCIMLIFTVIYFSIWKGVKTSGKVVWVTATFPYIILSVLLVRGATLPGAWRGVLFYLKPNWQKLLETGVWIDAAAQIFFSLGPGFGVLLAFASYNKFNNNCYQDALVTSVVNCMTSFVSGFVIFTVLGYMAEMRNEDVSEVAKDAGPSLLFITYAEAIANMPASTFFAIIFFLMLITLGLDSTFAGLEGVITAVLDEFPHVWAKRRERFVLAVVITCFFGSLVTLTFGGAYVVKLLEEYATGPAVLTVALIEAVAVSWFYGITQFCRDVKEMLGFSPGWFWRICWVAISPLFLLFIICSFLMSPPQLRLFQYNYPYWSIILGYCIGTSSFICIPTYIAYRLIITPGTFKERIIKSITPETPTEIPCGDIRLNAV

SMILES | IC50 [nM]
NC1(c2ccccc2)CCc2oncc2C1 (racemic) [rac-A145, phenyl-4,5,6,7-tetrahydrobenzo[d]isoxazol-5-amine] | 600
COc1ccc(C2(N)CCc3nc(N)sc3C2)cc1 (racemic) [rac-A89, 6-(4-methoxyphenyl)-4,5,6,7-tetrahydrobenzothiazole-2,6-diamine] | 7600
CNC1(c2ccc(F)cc2F)CCc2nc(N)sc2C1 (racemic) [rac-A236, 6-(2,4-difluorophenyl)-N^6-methyl-4,5,6,7-tetrahydrobenzo[d]thiazole-2,6-diamine] | 2800
CNC1(c2cccc(OC)c2)CCc2ncsc2C1 (racemic) [rac-A273, 6-(3-methoxyphenyl)-N-methyl-4,5,6,7-tetrahydrobenzo[d]thiazol-6-amine hydrochloride] | 1000
CNC1(c2ccc(OC)c(OC)c2)CCc2nc(N)sc2C1 (racemic) [rac-A254, 6-(3,4-dimethoxyphenyl)-N^6-methyl-4,5,6,7-tetrahydrobenzo[d]thiazole-2,6-diamine] | 2000
N[C@]1(c2ccccc2)CCc2ncsc2C1 [R-A14] | 67
COc1cccc(C2(N)CCc3nc(C(C)=O)sc3C2)c1 (racemic) [rac-A314, 1-(6-amino-6-(3-methoxyphenyl)-4,5,6,7-tetrahydrobenzo[d]thiazol-2-yl)ethan-1-one hydrochloride] | 5600
NC1(c2ccccc2)CCc2nc(O)sc2C1 (racemic) [rac-A8, 6-amino-6-phenyl-4,5,6,7-tetrahydrobenzothiazol-2-ol] | 7
NC1(c2ccccc2)CCc2nc(C(F)(F)F)sc2C1 (racemic) [rac-A131, 6-phenyl-2-(trifluoromethyl)-4,5,6,7-tetrahydrobenzo[d]thiazol-6-amine hydrochloride] | 3600
COc1cccc(C2(N)CCc3nc(-c4ccccc4)sc3C2)c1 (racemic) [rac-A319, 6-(3-methoxyphenyl)-2-phenyl-4,5,6,7-tetrahydrobenzo[d]thiazol-6-amine hydrochloride] | 980
Cc1ccccc1C1(N)CCc2nc(N)sc2C1 (racemic) [rac-A100, 6-(2-methylphenyl)-4,5,6,7-tetrahydrobenzothiazole-2,6-diamine] | 17000
COc1cccc(C2(N)CCc3nc(NC(C)=O)sc3C2)c1 (racemic) [rac-A300, N-(6-amino-6-(3-methoxyphenyl)-4,5,6,7-tetrahydrobenzo[d]thiazol-2-yl)acetamide] | 2100
NC1(c2ccc(F)cc2)CCCc2cn[nH]c21 (racemic) [rac-A222, 7-(4-fluorophenyl)-4,5,6,7-tetrahydro-1H-indazol-7-amine] | 10000
CNC1(c2ccc(F)cc2)CCc2ncsc2C1 (racemic) [rac-A294, 6-(4-fluorophenyl)-N-methyl-4,5,6,7-tetrahydrobenzo[d]thiazol-6-amine] | 1100
COc1cccc(C2(N)CCc3nc(C(N)=O)sc3C2)c1 (racemic) [rac-A315, 6-amino-6-(3-methoxyphenyl)-4,5,6,7-tetrahydrobenzo[d]thiazole-2-formamide] | 6800
CN(C)C1(c2ccccc2)CCc2sc(N)nc2C1 (racemic) [rac-A249, N^5, N^5-dimethyl-5-phenyl-4,5,6,7-tetrahydrobenzo[d]thiazole-2,5-diamine] | 1000
Nc1nc2c(s1)CC(N)(c1cccnc1)CC2 (racemic) [rac-A98, 6-(pyridin-3-yl)-4,5,6,7-tetrahydrobenzothiazole-2,6-diamine] | 16000
CCNc1nc2c(s1)CC(N)(c1cccc(OC)c1)CC2 (racemic) [rac-A301, N^2-ethyl-6-(3-methoxyphenyl)-4,5,6,7-tetrahydrobenzo[d]thiazole-2,6-diamine hydrochloride] | 4000
NC1(c2cccc(O)c2)CCc2nc(O)sc2C1 (racemic) [rac-A306, 6-amino-6-(3-hydroxyphenyl)-4,5,6,7-tetrahydrobenzo[d]thiazol-2-ol] | 200
COc1cccc(C2(N)CCc3nc(O)sc3C2)c1 (racemic) [rac-A262, 6-amino-6-(3-methoxyphenyl)-4,5,6,7-tetrahydrobenzo[d]thiazol-2-ol] | 140
Nc1nc2c(s1)C[C@@](N)(c1ccccc1)CC2 [R-A1] | 1000

SMILES | IC50 [nM]
CN(Cc1ccccc1)C1(c2ccccc2)CCc2[nH]ncc2C1 (racemic) [rac-A68, N-benzyl-N-methyl-5-phenyl-4,5,6,7-tetrahydro-1H-indazol-5-amine] | 700
COc1cccc(C2(N)CCc3c(sc(=O)n3C)C2)c1 (racemic) [rac-A299, 6-amino-6-(3-methoxyphenyl)-3-methyl-4,5,6,7-tetrahydrobenzo[d]thiazol-2-one hydrochloride] | 520
Nc1nc2c(s1)CC(N)(c1ccc(F)cc1F)CC2 (racemic) [rac-A235, 6-(2,4-difluorophenyl)-4,5,6,7-tetrahydrobenzo[d]thiazole-2,6-diamine] | 5900
CCOc1cccc([C@@]2(N)CCc3nc(N)sc3C2)c1 [R-A228, (R)-6-(3-ethoxyphenyl)-4,5,6,7-tetrahydrobenzo[d]thiazole-2,6-diamine] | 2900
CNC1(c2cccc(OC)c2)CCc2nc(N)sc2C1 (racemic) [rac-A88, 6-(3-methoxyphenyl)-N^6-methyl-4,5,6,7-tetrahydrobenzothiazole-2,6-diamine] | 900
CNC1(c2cccc(C(F)(F)F)c2)CCc2nc(N)sc2C1 (racemic) [rac-A94, 6-(3-trifluoromethylphenyl)-N^6-methyl-4,5,6,7-tetrahydrobenzothiazole-2,6-diamine hydrobromide] | 4300
CCOc1nc2c(s1)CC(N)(c1ccccc1)CC2 (racemic) [rac-A257, 2-ethoxy-6-phenyl-4,5,6,7-tetrahydrobenzo[d]thiazol-6-amine] | 300
CSc1cccc(C2(N)CCc3nc(N)sc3C2)c1 (racemic) [rac-A304, 6-(3-methylthio)phenyl-4,5,6,7-tetrahydrobenzo[d]thiazole-2,6-diamine] | 3700
CNC1(c2ccccc2F)CCc2nc(N)sc2C1 (racemic) [rac-A81, 6-(2-fluorophenyl)-N^6-methyl-4,5,6,7-tetrahydrobenzothiazole-2,6-diamine] | 94
CN(C)C1(c2ccccc2)CCc2ncsc2C1 (racemic) [rac-A233, N,N-dimethyl-6-phenyl-4,5,6,7-tetrahydrobenzo[d]thiazol-6-amine] | 300
CNC1(c2ccccc2)CCc2nc(O)sc2C1 (racemic) [rac-A279, 6-(methylamino)-6-phenyl-4,5,6,7-tetrahydrobenzo[d]thiazol-2-ol] | 28
CCOc1cccc(C2(N)CCc3nc(O)sc3C2)c1 (racemic) [rac-A295, 6-amino-6-(3-ethoxyphenyl)-4,5,6,7-tetrahydrobenzo[d]thiazol-2-ol hydrochloride] | 110
Nc1nc2c(s1)CC(N)(c1ccc3ccccc3c1)CC2 (racemic) [rac-A118, 6-(naphthalen-2-yl)-4,5,6,7-tetrahydrobenzothiazole-2,6-diamine] | 2000
COc1cccc(C2(N)CCc3nc(Br)sc3C2)c1 (racemic) [rac-A318, 2-bromo-6-(3-methoxyphenyl)-4,5,6,7-tetrahydrobenzo[d]thiazol-6-amine hydrochloride] | 4600
COc1nc2c(s1)CC(N)(c1ccccc1)CC2 (racemic) [rac-A225, 2-methoxy-6-phenyl-4,5,6,7-tetrahydrobenzo[d]thiazol-6-amine] | 1000
NC1(c2ccccc2)CCc2nnsc2C1 (racemic) [rac-A244, 6-phenyl-4,5,6,7-tetrahydrobenzo[d][1,2,3]thiadiazol-6-amine hydrochloride] | 1500
NC1(c2ccccc2)CCc2scnc2C1 (racemic) [rac-A134, 5-phenyl-4,5,6,7-tetrahydrobenzo[d]thiazol-5-amine] | 17000
COc1cccc(C2(N)CCc3nc(C4CC4)sc3C2)c1 (racemic) [rac-A316, 2-cyclopropyl-6-(3-methoxyphenyl)-4,5,6,7-tetrahydrobenzo[d]thiazol-6-amine hydrochloride] | 4000
N#Cc1cccc(C2(N)CCc3nc(N)sc3C2)c1 (racemic) | 8900
COc1cccc(C2(N)CCc3nc(OC)sc3C2)c1 (racemic) [rac-A317, 2-methoxy-6-(3-methoxyphenyl)-4,5,6,7-tetrahydrobenzo[d]thiazol-6-amine] | 5100
COc1cccc(C2(N)CCc3nc(N)sc3C2)n1 (racemic) [rac-A310, 6-(6-methoxypyridin-2-yl)-4,5,6,7-tetrahydrobenzo[d]thiazole-2,6-diamine] | 16000

— US20260174739A1 (priority 2022, published 2026)
